Assay results taken from patent US10065990B2, “Cyclic peptide compound, and preparation method, pharmaceutical composition and use thereof” (HANGZHOU GUANYU BIO-MEDICAL CO., LTD, priority 2013, dated 2018).
Read-outs that look alike come from different tables or passages of the source.

Experiments:
HDAC7 = biological target: T1, HDAC7 (Homo sapiens, UniProt Q8WUI4); assay: HDAC biochemical activity measurement (fluorescent substrate deacetylation);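 note: fluorogenic deacetylation assay using acetyl-lysine substrate at 20 µM, enzyme and compound incubated 30 min at 37 °C, then developer added, fluorescence read at 360/460 nm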; conditions: HDAC7; 37° C. 30 minutes
T1 sequence (Q8WUI4 1-952): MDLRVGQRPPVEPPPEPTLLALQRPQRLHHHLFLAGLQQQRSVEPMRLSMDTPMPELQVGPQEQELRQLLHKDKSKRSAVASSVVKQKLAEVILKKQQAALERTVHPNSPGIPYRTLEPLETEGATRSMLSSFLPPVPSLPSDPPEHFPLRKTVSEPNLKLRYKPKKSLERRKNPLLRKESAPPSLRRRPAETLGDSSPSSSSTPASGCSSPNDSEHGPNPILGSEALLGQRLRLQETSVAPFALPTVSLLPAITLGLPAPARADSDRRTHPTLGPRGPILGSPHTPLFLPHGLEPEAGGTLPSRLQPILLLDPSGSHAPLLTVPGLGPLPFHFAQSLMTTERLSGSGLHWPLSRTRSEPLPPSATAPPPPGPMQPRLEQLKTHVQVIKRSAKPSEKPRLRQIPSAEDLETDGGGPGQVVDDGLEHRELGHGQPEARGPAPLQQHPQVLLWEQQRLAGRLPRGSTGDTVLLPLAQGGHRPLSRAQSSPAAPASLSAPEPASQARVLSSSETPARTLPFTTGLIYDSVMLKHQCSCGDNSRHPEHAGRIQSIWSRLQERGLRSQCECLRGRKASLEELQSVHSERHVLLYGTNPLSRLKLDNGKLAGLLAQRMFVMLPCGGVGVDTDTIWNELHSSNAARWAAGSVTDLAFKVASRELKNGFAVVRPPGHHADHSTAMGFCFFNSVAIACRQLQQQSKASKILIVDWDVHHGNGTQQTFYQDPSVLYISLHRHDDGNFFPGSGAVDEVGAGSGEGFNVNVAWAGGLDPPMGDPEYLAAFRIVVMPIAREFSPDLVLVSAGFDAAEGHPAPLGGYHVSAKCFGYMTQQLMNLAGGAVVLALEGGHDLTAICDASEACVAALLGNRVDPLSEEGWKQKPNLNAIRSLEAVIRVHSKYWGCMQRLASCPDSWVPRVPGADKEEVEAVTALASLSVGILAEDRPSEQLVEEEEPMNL

[1] = system: KBM5-T315I (human chronic myelogenous leukemia); assay: MTT cancer cell growth inhibition; type: cell-based; conditions: Homo sapiens, 72 h, MTT, 72 hours incubation, KBM5-T315I cells; read-out: GI50 KBM5-T315I
How it was run: (§1)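 Tumour cells in 10% FBS-supplemented DMEM or RPMI 1640 are plated at 1500 per well, dosed next day with compound (10^−5 through 10^−10 M, final) and kept 72 h. MTT is added for 4 h; dissolved formazan is measured at 570 nm and GI50 determined.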

[2] = system: MDA-MB-231 (breast cancer cells); assay: MTT cancer cell growth inhibition; type: cell-based; conditions: Homo sapiens, MDA-MB-231, 72 h, read-out: GI50 MDA-MB-231, MTT, 72 hours incubation, MDA-MB-231 cells
How it was run: as §1

[3] = system: K562 (human leukemia cells); assay: MTT cancer cell growth inhibition; type: cell-based; conditions: Homo sapiens, K562, 72 h, MTT, 72 hours incubation, K562 cells; read-out: GI50 K562
How it was run: as §1

[4] = system: MCF-7 (human breast cancer cells); assay: MTT cancer cell growth inhibition; type: cell-based; conditions: Homo sapiens, MCF7, 72 h, 72 hours incubation, read-out: GI50 MCF
How it was run: as §1

[5] = system: BGC-823 (human gastric cancer cells); assay: MTT cancer cell growth inhibition; type: cell-based; conditions: Homo sapiens, BGC-823, 72 h, MTT, 72 hours incubation, read-out: GI50 BG
How it was run: as §1

[6] = system: H1975 (non-small cell lung adenocarcinoma); assay: MTT cancer cell growth inhibition; type: cell-based; conditions: Homo sapiens, NCI-H1975, 72 h, MTT, 72 hours incubation, H1975 cells; read-out: GI50 H1975
How it was run: as §1

[7] = system: lncap (prostate cancer cells); assay: MTT cancer cell growth inhibition; type: cell-based; conditions: Homo sapiens, LNCaP, 72 h, MTT, 72 hours incubation, read-out: GI50 lnca
How it was run: as §1

[8] = system: Huh-7 (human hepatoma cells); assay: MTT cancer cell growth inhibition; type: cell-based; conditions: Homo sapiens, Huh-7, 72 h, MTT, 72 hours incubation, Huh-7 cells; read-out: GI50 Huh-7
How it was run: as §1

[9] = system: U937 (human leukemia cells); assay: MTT cancer cell growth inhibition; type: cell-based; conditions: Homo sapiens, U-937, 72 h, MTT, 72 hours incubation, read-out: GI50 U93
How it was run: as §1

[10] = system: HCC827 (human non-small cell lung cancer cells); assay: MTT cancer cell growth inhibition; type: cell-based; conditions: Homo sapiens, HCC827, 72 h, MTT, 72 hours incubation, HCC827 cells; read-out: GI50 HCC827
How it was run: as §1

[11] = system: DU145 (human prostate cancer cells); assay: MTT cancer cell growth inhibition; type: cell-based; conditions: Homo sapiens, DU-145, 72 h, MTT, 72 hours incubation, read-out: GI50 Du1
How it was run: as §1

[12] = system: MOLT-4 (human acute lymphoblastic leukemia cells); assay: MTT cancer cell growth inhibition; type: cell-based; conditions: Homo sapiens, MOLT-4, 72 h, MTT, 72 hours incubation, read-out: GI50 Mol
How it was run: as §1

[13] = system: SGC-7901 (human gastric cancer cells); assay: MTT cancer cell growth inhibition; type: cell-based; conditions: Homo sapiens, SGC-7901, 72 h, MTT, 72 hours incubation, SGC-7901 cells; read-out: GI50 SGC-7901
How it was run: as §1

[14] = system: PANC-1 (Pac-1, human pancreatic cancer cells); assay: MTT cancer cell growth inhibition; type: cell-based; conditions: Homo sapiens, PANC-1, 72 h, MTT, 72 hours incubation, read-out: GI50 PAN
How it was run: as §1

[15] = system: N-87 (human gastric cancer cells); assay: MTT cancer cell growth inhibition; type: cell-based; conditions: Homo sapiens, 72 h, MTT, 72 hours incubation, N-87 cells; read-out: GI50 N-87
How it was run: as §1

[16] = system: Bel-7402 (human hepatoma cells); assay: MTT cancer cell growth inhibition; type: cell-based; conditions: Homo sapiens, Bel-7402, 72 h, MTT, 72 hours incubation, Bel-7402 cells; read-out: GI50 Bel-7402
How it was run: as §1

[17] = system: KBM-5 (human chronic myelogenous leukemia); assay: MTT cancer cell growth inhibition; type: cell-based; conditions: Homo sapiens, KBM5, 72 h, MTT, 72 hours incubation, KBM-5 cells; read-out: GI50 KBM-5
How it was run: as §1

[18] = system: Hela (human cervical cancer cells); assay: MTT cancer cell growth inhibition; type: cell-based; conditions: Homo sapiens, HeLa, 72 h, MTT, 72 hours incubation, read-out: GI50 Hela
How it was run: as §1

[19] = system: HT1080 (human fibrosarcoma cells); assay: MTT cancer cell growth inhibition; type: cell-based; conditions: Homo sapiens, HT-1080, 72 h, MTT, 72 hours incubation, read-out: GI50 HT1
How it was run: as §1

[20] = system: A549 (human lung cancer cells); assay: MTT cancer cell growth inhibition; type: cell-based; conditions: Homo sapiens, A549, 72 h, MTT, 72 hours incubation, read-out: GI50 A54
How it was run: as §1

Compound | IC50 HDAC7 (HDAC7) | GI50 [1] | GI50 [2] | GI50 [3] | GI50 [6] | GI50 [8] | GI50 [10] | GI50 [13] | GI50 [15] | GI50 [16] | GI50 [17] | GI50 ([4]; MCF-7 cells) | GI50 ([5]; BGC-823 cells) | GI50 ([7]; lncap cells) | GI50 ([9]; U937 cells) | GI50 ([11]; DU145 cells) | GI50 ([12]; MOLT-4 cells) | GI50 ([14]; PANC-1 cells) | GI50 ([18]; Hela cells) | GI50 ([19]; HT1080 cells) | also measured
C/C=C1\NC(=O)c2nc(ccc2F)CNC(=O)C[C@@H](/C=C/CCSC(=O)CCCCCCC)OC(=O)[C@H](Cc2ccccc2)NC1=O [Example 69] | no activity | 0.029 µM | 0.035 µM | 0.041 µM | 0.043 µM | 0.035 µM | 0.074 µM | 0.036 µM | 0.052 µM | 0.074 µM | 0.081 µM |  |  |  |  |  |  |  |  |  | GI50 [4]: 0.02 µM; GI50 [5]: 0.05 µM; GI50 [7]: 0.03 µM; GI50 [9]: 0.04 µM; GI50 [11]: 0.04 µM; GI50 [12]: 0.03 µM; GI50 [14]: 0.07 µM; GI50 [18]: 0.08 µM; GI50 [19]: 0.07 µM; GI50 [20]: 0.03 µM
C/C=C1\NC(=O)c2ccc(SC)c(n2)CNC(=O)C[C@@H](/C=C/CCSC(=O)CCCC)OC(=O)[C@H](C(C)C)NC1=O [Compound 158] | no activity | 0.027 µM | 0.046 µM | 0.048 µM | 0.049 µM | 0.041 µM | 0.091 µM | 0.027 µM | 0.038 µM | 0.045 µM | 0.046 µM | 0.02 µM | 0.03 µM | 0.04 µM | 0.04 µM | 0.06 µM | 0.08 µM | 0.02 µM | 0.06 µM | 0.07 µM | GI50 ([20]; A549 cells): 0.03 µM
C/C=C1\NC(=O)c2ccc(SCCC)c(n2)CNC(=O)C[C@@H](/C=C/CCSC(=O)CCCCCCC)OC(=O)[C@H](CC)NC1=O [Compound 176] | no activity | 0.038 µM | 0.032 µM | 0.021 µM | 0.031 µM | 0.031 µM | 0.038 µM | 0.031 µM | 0.028 µM | 0.031 µM | 0.034 µM | 0.01 µM | 0.02 µM | 0.03 µM | 0.01 µM | 0.05 µM | 0.05 µM | 0.06 µM | 0.05 µM | 0.03 µM | GI50 ([20]; A549 cells): 0.08 µM
C/C=C1\NC(=O)c2cc(SC)cc(n2)CNC(=O)C[C@@H](/C=C/CCSC(=O)CCCCCCC)OC(=O)[C@H](C)NC1=O [Compound 181] | no activity | 0.033 µM | 0.018 µM | 0.023 µM | 0.035 µM | 0.037 µM | 0.041 µM | 0.028 µM | 0.036 µM | 0.038 µM | 0.015 µM | 0.07 µM | 0.03 µM | 0.08 µM | 0.02 µM | 0.06 µM | 0.08 µM | 0.04 µM | 0.07 µM | 0.06 µM | GI50 ([20]; A549 cells): 0.05 µM
C/C=C1\NC(=O)c2ccc(F)c(n2)CNC(=O)C[C@@H](/C=C/CCS)OC(=O)[C@H](C)NC1=O [Compound 114] | no activity | 0.028 µM | 0.022 µM | 0.038 µM | 0.032 µM | 0.054 µM | 0.071 µM | 0.043 µM | 0.011 µM | 0.042 µM | 0.099 µM |  |  |  |  |  |  |  |  |  | GI50 [4]: 0.06 µM; GI50 [5]: 0.06 µM; GI50 [7]: 0.07 µM; GI50 [9]: 0.03 µM; GI50 [11]: 0.06 µM; GI50 [12]: 0.1 µM; GI50 [14]: 0.06 µM; GI50 [18]: 0.07 µM; GI50 [19]: 0.1 µM; GI50 [20]: 0.03 µM
C/C=C1\NC(=O)c2ccc(SC)c(n2)CNC(=O)C[C@@H](/C=C/CCSC(=O)CC)OC(=O)[C@H](C(C)C)NC1=O [Compound 164] | no activity | 0.047 µM | 0.096 µM | 0.062 µM | 0.081 µM | 0.095 µM | 0.028 µM | 0.028 µM | 0.041 µM | 0.038 µM | 0.073 µM | 0.03 µM | 0.34 µM | 0.03 µM | 0.06 µM | 0.05 µM | 0.05 µM | 0.08 µM | 0.02 µM | 0.02 µM | GI50 ([20]; A549 cells): 0.06 µM
C=C1NC(=O)c2cccc(n2)CNC(=O)C[C@@H](/C=C/CCSC(C)=O)OC(=O)[C@H](C)NC1=O [Example 21] | no activity | 0.027 µM | 0.098 µM | 0.025 µM | 0.037 µM | 0.084 µM | 0.034 µM | 0.024 µM | 0.035 µM | 0.083 µM | 0.073 µM |  |  |  |  |  |  |  |  |  | GI50 [4]: 0.1 µM; GI50 [5]: 0.87 µM; GI50 [7]: 1.21 µM; GI50 [9]: 5.11 µM; GI50 [11]: 0.99 µM; GI50 [12]: 1.01 µM; GI50 [14]: 1.17 µM; GI50 [18]: 0.4 µM; GI50 [19]: 1.05 µM; GI50 [20]: 0.33 µM
